# According to US11744816B2, “Fixed dose combinations and formulations comprising ETC1002 and ezetimibe and methods of treating or reducing the risk of cardiovascular disease” (Esperion Therapeutics, Inc., priority 2015, dated 2023):
# How the values were obtained:
# [1] = test system: hypercholesterolemic patients; assay: Phase 2b double-blind trial: safety, treatment-emergent adverse events and laboratory abnormalities
# Description: The study population included both statin-tolerant and statin-intolerant participants. Statin intolerance was defined as the inability to tolerate ≥2 statins because of muscle-related symptoms such as pain, weakness, or cramping that began or increased during statin therapy and resolved on statin discontinuation. At least 1 statin must have been administered at the lowest approved daily dose, defined as rosuvastatin 5 mg, atorvastatin 10 mg, simvastatin 10 mg, lovastatin 20 mg, pravastatin 40 mg, fluvastatin 40 mg, or pitavastatin 2 mg. Treatment with less than the lowest approved daily dose of a statin (i.e., skipping days) was considered equivalent to not tolerating 1 statin at the lowest approved daily dose.
# Patients underwent a 5-week washout of all lipid-regulating drugs and dietary supplements and abstained from these drugs and supplements throughout the study. Patients also underwent a 5-week patient-only-blinded placebo run-in during the screening period (week −5 to week 0). This single-blind placebo run-in period was used to eliminate patients with muscle-related AEs during placebo treatment. Patients reporting new or worsening, unexplained muscle-related AEs during this run-in period were excluded from the study.
# Patients were stratified (1:1) by history of statin intolerance and randomized at week 0 in a 4:4:4:1:1 ratio to once-daily treatment with capsules containing ETC-1002 120 mg, ETC-1002 180 mg, EZE, ETC-1002 120 mg plus EZE, or ETC-1002 180 mg plus EZE.
# The safety of ETC-1002 was assessed using treatment-emergent AEs; hematology, serum chemistry, and urinalysis laboratory values; physical examination findings, vital sign measurements, electrocardiogram (ECG) readings; weight; and ankle and waist circumference measurements. AEs were coded using the Medical Dictionary for Regulatory Activities version 16.0 and evaluated by the investigator for severity and relation to study drug. Muscle-related AEs were defined as those from the system organ class of musculoskeletal and connective tissue disorders, except for those that were not obviously muscle related Terms included in the muscle-related AFE analysis were selected from this system organ class after database lock and before unblinding.
# Safety analyses were performed on the safety population, which included randomized patients who received at least 1 dose of study drug. Baseline patient characteristics were summarized for the safety population by treatment group and statin-tolerance subgroup.
# Muscle-related AEs also were summarized by statin-tolerance subgroup.
# [2] = test system: hypercholesterolemic patients; assay: Phase 2b double-blind trial: percent changes from baseline to week 12 in lipids and CRP; type: in vivo, human
# Description: LDL-C was calculated using the Friedewald equation.
# The primary endpoint was the percent change from baseline to week 12 in calculated LDL-C in patients treated with ETC-1002 monotherapy versus those treated with EZE alone. Secondary endpoints included the dose-response relationship between ETC-1002 and the percent change in LDL-C from baseline to week 12, the percent change in LDL-C from baseline to week 12 in patients treated with ETC-1002 plus EZE versus those treated with EZE alone, and the percent change from baseline to week 12 for all treatment groups in LDL particle number, apolipoprotein B, total cholesterol, non-high-density lipoprotein cholesterol (non-HDL-C), HDL-C, HDL particle number, apolipoprotein A-I, triglycerides, very-low-density lipoprotein (VLDL) particle number, and high-sensitivity C-reactive protein (CRP). Lipoprotein particle number was measured using nuclear magnetic resonance […].
# An analysis of covariance was used to compare each ETC-1002 treatment group with EZE monotherapy for each of the efficacy endpoints. The primary model included the effects of treatment and statin intolerance and the baseline value as a covariate. Baseline was defined as the mean of values from weeks −1 and 0 for LDL-C, non-HDL-C, total cholesterol, HDL-C, and triglycerides. For all other lipid and biomarker measures, baseline was defined as the last value before the first dose of study drug. Missing values at week 12 were imputed using the last-observation-carried-forward procedure. When LDL-C could not be calculated (i.e., triglycerides >400 mg/dL), beta-quantification measurements were used to determine LDL-C values. Least-squares (LS) means and standard errors were obtained for each treatment group; differences in LS means and p-values were obtained for the treatment comparisons. Graphical methods (e.g., normal probability plot and histogram of residuals, plot of residuals vs. predicted values) or analytical methods (e.g., Shapiro-Wilk test), or both, were used to assess the model assumptions. Because of departures from normality observed in the parameters of triglycerides, CRP, and VLDL particle number, nonparametric analyses were performed for these measures, with p-values obtained from the Wilcoxon rank-sum test and median values presented.
# Percent changes from baseline in LDL-C also were summarized by statin-tolerance subgroup. To assess the dose-response relationship for ETC-1002 monotherapy, the primary analysis of covariance model was used for the comparison of the ETC-1002 120 mg and ETC-1002 180 mg. Statistical testing of the efficacy endpoints was 2-sided and conducted at the 5% level of significance with no adjustment for multiple comparisons.
# [3] = EZE 10 mg once daily, 12 weeks, safety population
# [4] = EZE 10 mg once daily, 12 weeks, statin-intolerant patients
# [5] = EZE 10 mg once daily, 12 weeks, statin-tolerant patients
# [6] = EZE 10 mg once daily, 12 weeks, mITT, LS mean ± SE
compound,measurement,setting,value
"O=C1[C@H](CC[C@H](O)c2ccc(F)cc2)[C@@H](c2ccc(O)cc2)N1c1ccc(F)cc1 [EZE, (3R,4S)-1-(4-fluorophenyl)-3-[(3S)-3-(4-fluorophenyl)-3-hydroxypropyl]-4-(4-hydroxyphenyl)azetidin-2-one, reference compound]","Alanine aminotransferase or aspartate aminotransferase, or both, increased >3 times the upper limit of normal at any measurement",[1]; EZE,1 patients
same,Serious AEs reported (events),[1]; EZE,transient ischemic attack
same,Most common AEs: ALT increased,[1]; [3],1 (1%) n (%)
same,Most common AEs: AST increased,[1]; [3],0 n (%)
same,Most common AEs: Arthralgia,[1]; [3],4 (4%) n (%)
same,Most common AEs: Back pain,[1]; [3],8 (8%) n (%)
same,Most common AEs: Blood CK increased,[1]; [3],1 (1%) n (%)
same,Most common AEs: Constipation,[1]; [3],1 (1%) n (%)
same,Most common AEs: Headache,[1]; [3],1 (1%) n (%)
same,Most common AEs: Myalgia,[1]; [3],6 (6%) n (%)
same,Most common AEs: Nasopharyngitis,[1]; [3],4 (4%) n (%)
same,Most common AEs: Upper respiratory tract infection,[1]; [3],1 (1%) n (%)
same,Most common AEs: Urinary tract infection,[1]; [3],6 (6%) n (%)
same,Treatment-emergent AEs: Any AE(s),[1]; [3],53 (54%) n (%)
same,Treatment-emergent AEs: Discontinuation due to AE(s),[1]; [3],8 (8%) n (%)
same,Treatment-emergent AEs: Serious AE(s),[1]; [3],1 (1%) n (%)
same,Treatment-emergent AEs: Study drug-related AE(s),[1]; [3],19 (19%) n (%)
same,Any muscle-related AE,[1]; [4],9 (18%) n (%)
same,Muscle-related AE leading to discontinuation,[1]; [4],5 (10%) n (%)
same,Muscle-related AEs: Muscle spasms,[1]; [4],1 (2%) n (%)
same,Muscle-related AEs: Muscular weakness,[1]; [4],1 (2%) n (%)
same,Muscle-related AEs: Musculoskeletal chest pain,[1]; [4],0 n (%)
same,Muscle-related AEs: Musculoskeletal stiffness,[1]; [4],1 (2%) n (%)
same,Muscle-related AEs: Myalgia,[1]; [4],6 (12%) n (%)
same,Muscle-related AEs: Pain in extremity,[1]; [4],3 (6%) n (%)
same,Muscle-related AEs: Sensation of heaviness,[1]; [4],1 (2%) n (%)
same,Any muscle-related AE,[1]; [5],3 (6%) n (%)
same,Muscle-related AE leading to discontinuation,[1]; [5],1 (2%) n (%)
same,Muscle-related AEs: Muscle spasms,[1]; [5],2 (4%) n (%)
same,Muscle-related AEs: Musculoskeletal pain,[1]; [5],1 (2%) n (%)
same,Muscle-related AEs: Myalgia,[1]; [5],0 n (%)
same,"Myalgia, patients affected","[1]; EZE alone, entire study population",6%
same,Percent change from baseline to week 12 in Apolipoprotein A-I,[2]; [6],2.0 ± 1.1%
same,Percent change from baseline to week 12 in Apolipoprotein B,[2]; [6],−15.2 ± 1.2%
same,Percent change from baseline to week 12 in HDL particle number,[2]; [6],6.7 ± 1.3%
same,Percent change from baseline to week 12 in HDL-C,[2]; [6],5.0 ± 1.4%
same,Percent change from baseline to week 12 in LDL particle number,[2]; [6],−12.7 ± 1.7%
same,Percent change from baseline to week 12 in LDL-C,[2]; [6],−21.2 ± 1.3%
same,Percent change from baseline to week 12 in Non-HDL-C,[2]; [6],−18.7 ± 1.2%
same,Percent change from baseline to week 12 in Total cholesterol,[2]; [6],−14.3 ± 0.9%
same,Percent change from baseline to week 12 in VLDL particle number,"[2]; EZE 10 mg once daily, 12 weeks, mITT, median (interquartile range)",−12.6 (63.4) %
same,CRP reduction,[2]; EZE alone,10%
same,HDL-C increase,"[2]; EZE alone, week 12",5%
